Reference: paper PMC6152084, “Synthesis of New Hydrazone Derivatives for MAO Enzymes Inhibitory Activity” (Molecules : A Journal of Synthetic Chemistry and Natural …, 2017)
“Also recorded” adds a separate entry of the source. Marks after values point to notes of the source that are not given here.

Assays:
hMAO-B = molecular target: T1, hMAO-B (Homo sapiens, UniProt P27338); experiment: MAO-B inhibition assay (in vitro fluorometric Amplex Red method); assay type: biochemical; settings: for inhibition at 1000 µM: 10^−3 M; for inhibition at 100 µM: 10^−4 M
T1 construct: purchased Sigma-Aldrich (Steinheim, Germany)
T1 sequence (P27338 1-520): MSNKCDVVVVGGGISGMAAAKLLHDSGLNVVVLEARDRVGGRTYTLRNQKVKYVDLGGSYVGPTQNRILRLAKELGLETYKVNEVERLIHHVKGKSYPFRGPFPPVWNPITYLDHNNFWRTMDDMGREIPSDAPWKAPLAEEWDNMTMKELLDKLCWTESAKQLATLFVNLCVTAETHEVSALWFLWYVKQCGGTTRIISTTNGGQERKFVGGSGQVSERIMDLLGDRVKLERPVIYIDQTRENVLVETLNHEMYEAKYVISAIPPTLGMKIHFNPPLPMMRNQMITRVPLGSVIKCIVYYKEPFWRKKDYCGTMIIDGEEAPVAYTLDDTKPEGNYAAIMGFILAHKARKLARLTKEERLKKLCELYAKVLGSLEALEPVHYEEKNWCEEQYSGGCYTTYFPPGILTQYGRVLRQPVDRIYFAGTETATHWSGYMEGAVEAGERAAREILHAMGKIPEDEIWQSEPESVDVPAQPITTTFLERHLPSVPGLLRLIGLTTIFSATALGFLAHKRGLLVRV

[1] = test system: NIH/3T3 mouse embryonic fibroblast cell line; experiment: Cytotoxicity test (MTT assay); assay type: cell-based; settings: for IC50: Mus musculus, NIH3T3, MTT, read-out: IC50 against NIH/3T3 cells; for cytotoxicity (in words): at effective concentration against hMAO-A
Method: In cytotoxicity test by using NIH/3T3 mouse embryonic fibroblast cell line (ATCC® CRL-1658™, London, UK), firstly NIH/3T3 cells were incubated in the Dulbecco’s Modified Eagle’s Medium (DMEM, Sigma Aldrich, St. Louis, MO, USA). NIH/3T3 cells were plated on 96-well culture plates as 10,000 cells per well and were then treated with the compounds at concentrations ranging from 1000 µM to 0.316 µM (1000, 316, 100, 31.6, 10, 3.16, 1, 0.316 µM). MTT assay was performed as previously described. Dose-response curves were plotted against compound concentrations applied to determine IC50 values.

[2] = test system: Salmonella typhimurium TA98; experiment: Ames MPF genotoxicity test, TA98; assay type: cell-based; settings: for mutagenicity classification against TA98: in the presence and absence of metabolic activation (S9)
Method: (§1) An Ames MPF assay was performed to investigate the genotoxicity of the compounds 2a and 2b.
(§2) The genotoxicity of the compounds was determined by Ames assay as previously described using the Ames MPF 98/100 mutagenicity test sample kit (Xenometrix AG, Allschwil, Switzerland). This test was performed with Salmonella typhimurium strains TA98 (frameshift mutations) and TA100 (base-pair substitutions). Compounds was prepared in six different concentrations (5, 2.5, 1.25, 0.625, 0.3125, 0.156 mg/mL) which was between […] and 5000 µg/mL according to the previous guidelines in DMSO. In order to detect mutagenic potential, test performed with and without Aroclor™-1254 induced male Sprague-Dawley rat liver microsomal enzyme (S9) mix (Xenometrix AG). While the positive control for TA 98 without S9 mix was 2-nitrofluorene (2 μg/mL), 1 μg/mL of 2-aminoanthracene was positive control with S9 against TA 98. For TA100, 4-nitroquinoline N-oxide (0.1 μg/mL) was positive control without S9 mix and 2.5 μg/mL of 2-aminoanthracene was positive control. 4% DMSO solution was the solvent control. At the end of the experiment, revertant bacteria decreased the pH of solution and indicator medium colour was changed to yellow. Yellow wells were counted as positive and compared with the negative control. Fold induction over the negative control and fold induction over the baseline were calculated. Fold induction over the negative control is the ratio of the mean number of positive wells for the dose concentration divided by the mean number of positive wells for the zero dose (negative) control. Fold induction over the baseline is the ratio of the mean number of positive wells for the dose concentration divided by zero dose baseline. The zero dose baseline is obtained by adding one standard deviation to the mean number of positive wells of the zero dose control. Mutagenity was determined according to the criteria from previous studies. For a baseline value ≤ 3, significant increases between 2 and 3-fold the baseline were classified as weak mutagen, increases ≥ 3-fold the baseline were classified as mutagen. For a baseline was > 3, significant increases between 1.5 and 2.5-fold the baseline were classified as weak mutagen, and increases ≥ 2.5-fold the baseline, were classified as mutagen. In principle, for a mutagenic compound, at least two adjacent doses with significant increase or a significant increase at the highest dose level should be observed. All doses were compared according to Student’s t-test at p < 0.05 as statistically.

[3] = test system: Salmonella typhimurium TA100; experiment: Ames MPF genotoxicity test, TA100; assay type: cell-based; settings: for mutagenicity classification against TA100: with/without metabolic activation (S9)
Method: as §1, §2

Row | Compound | inhibition at 1000 µM (hMAO-B) | inhibition at 100 µM (hMAO-B) | IC50 [1] | cytotoxicity (in words) [1] | Revertants Fold Increase (Over Baseline) ([2]; TA 98, S9+, 0.156 mg/mL) | Revertants Fold Increase (Over Baseline) ([2]; TA 98, S9+, 1.25 mg/mL) | Revertants Fold Increase (Over Baseline) ([2]; TA 98, S9+, 2.5 mg/mL) | Revertants Fold Increase (Over Baseline) ([2]; TA 98, S9+, 5 mg/mL) | Revertants Fold Increase (Over Baseline) ([2]; TA 98, S9−, 0.156 mg/mL) | Revertants Fold Increase (Over Baseline) ([2]; TA 98, S9−, 0.3125 mg/mL) | Revertants Fold Increase (Over Baseline) ([2]; TA 98, S9−, 0.625 mg/mL) | Revertants Fold Increase (Over Baseline) ([2]; TA 98, S9−, 1.25 mg/mL) | Revertants Fold Increase (Over Baseline) ([2]; TA 98, S9−, 2.5 mg/mL) | Revertants Fold Increase (Over Baseline) ([2]; TA 98, S9−, 5 mg/mL) | mutagenicity classification against TA98 [2] | Revertants Fold Increase (Over Baseline) ([3]; TA 100, S9+, 0.156 mg/mL) | Revertants Fold Increase (Over Baseline) ([3]; TA 100, S9+, 0.3125 mg/mL) | Revertants Fold Increase (Over Baseline) ([3]; TA 100, S9+, 0.625 mg/mL) | Revertants Fold Increase (Over Baseline) ([3]; TA 100, S9+, 1.25 mg/mL) | Revertants Fold Increase (Over Baseline) ([3]; TA 100, S9+, 2.5 mg/mL) | further results
1 | CC1CCCCN1c1ccc(/C=N/Nc2ccccc2)cc1 (stereo not shown) [Compound 2a, 1-(4-(2-Methypiperidin-1-yl)benzylidene)-2-phenylhydrazine] | 35 ± 0.766% | 22.1 ± 0.443% | 930 ± 15.4 µM | non-cytotoxic; also recorded: not cytotoxic | 0.92 | 0.75 | 0.75 | 1.17 | 0.42 | 0.08 * | 0.58 | 0.50 | 0.08 * | 0.17 * | non-mutagenic | 0.99 | 0.69 | 0.91 | 0.95 | 0.39 | Revertants Fold Increase (Over Baseline) ([2]; TA 98, S9+, 0.3125 mg/mL): 0.83; Revertants Fold Increase (Over Baseline) ([2]; TA 98, S9+, 0.625 mg/mL): 0.58; Revertants Fold Increase (Over Baseline) ([3]; TA 100, S9+, 5 mg/mL): 0.82; Revertants Fold Increase (Over Baseline) ([3]; TA 100, S9−, 0.156 mg/mL): 0.44; Revertants Fold Increase (Over Baseline) ([3]; TA 100, S9−, 0.3125 mg/mL): 0.63; Revertants Fold Increase (Over Baseline) ([3]; TA 100, S9−, 0.625 mg/mL): 0.24 *; Revertants Fold Increase (Over Baseline) ([3]; TA 100, S9−, 1.25 mg/mL): 0.19 *; Revertants Fold Increase (Over Baseline) ([3]; TA 100, S9−, 2.5 mg/mL): 0.05 *; Revertants Fold Increase (Over Baseline) ([3]; TA 100, S9−, 5 mg/mL): 0.00 *; Fold-inductions over baseline ([3]; TA100, absence and presence of S9, each concentration): less than 1.5; mutagenicity classification against TA100 [3]: not genotoxic
2 | CN1CCN(c2ccc(C=NNc3ccccc3)cc2)CC1 [Compound 2b, 1-(4-(4-Methylpiperazine-1-yl)benzylidene)-2-phenylhydrazine] | 63.7 ± 1.03% | 43 ± 1.2% | 20 ± 1.32 µM | non-cytotoxic; also recorded: not cytotoxic | 0.85 | 0.37 | 0.37 | 0.12 | 1.24 * | 0.36 | 0.22 | 0.00 | 0.00 | 0.00 | not classified as a mutagen | 1.46 * | 1.40 | 1.46 | 0.79 | 0.12 * | Fold-inductions over baseline ([2]; TA98 without S9, all concentrations): ≤ 1.5; Revertants Fold Increase (Over Baseline) ([3]; TA 100, S9+, 5 mg/mL): 0.00 *; Revertants Fold Increase (Over Baseline) ([3]; TA 100, S9−, 0.156 mg/mL): 0.40; Revertants Fold Increase (Over Baseline) ([3]; TA 100, S9−, 0.3125 mg/mL): 0.17 *; Revertants Fold Increase (Over Baseline) ([3]; TA 100, S9−, 0.625 mg/mL): 0.06 *; Revertants Fold Increase (Over Baseline) ([3]; TA 100, S9−, 1.25 mg/mL): 0.03 *; Revertants Fold Increase (Over Baseline) ([3]; TA 100, S9−, 2.5 mg/mL): 0.00 *; Revertants Fold Increase (Over Baseline) ([3]; TA 100, S9−, 5 mg/mL): 0.00 *; Fold-inductions over baseline ([3]; TA100 with S9, each concentration): ≤ 1.5; mutagenicity classification against TA100 [3]: non-mutagenic
